The target in experiment [1] is Carbonic anhydrase 1 (Homo sapiens) (UniProt P00915). The experiment can be described thus: Maximal activatory effect against human carbonic anhydrase I (hCA I).
The target is the same in experiment [2]. As to the kind of experiment: Maximal activatory effect against human carbonic anhydrase I (hCA I) at a concentration of 1 uM.
Experiment [3] concerns the target Carbonic anhydrase 2 (Homo sapiens) (UniProt P00918). The experiment can be described thus: Maximal activatory effect against human carbonic anhydrase II (hCA II).
Experiment [4] concerns the target Carbonic anhydrase 1 (Homo sapiens) (UniProt P00915). The experiment can be described thus: Maximal activatory effect against human carbonic anhydrase I (hCA I) at a concentration of 1 mM.

Our source for the Activity values is ChEMBL document CHEMBL1136165, “Carbonic anhydrase activators. The selective serotonin reuptake inhibitors fluoxetine, sertraline and citalopram are strong activators of isozymes I and II” (Bioorg Med Chem Lett, 2003).

Chain of Carbonic anhydrase 1 (Homo sapiens) (P00915 2-261 limits assumed): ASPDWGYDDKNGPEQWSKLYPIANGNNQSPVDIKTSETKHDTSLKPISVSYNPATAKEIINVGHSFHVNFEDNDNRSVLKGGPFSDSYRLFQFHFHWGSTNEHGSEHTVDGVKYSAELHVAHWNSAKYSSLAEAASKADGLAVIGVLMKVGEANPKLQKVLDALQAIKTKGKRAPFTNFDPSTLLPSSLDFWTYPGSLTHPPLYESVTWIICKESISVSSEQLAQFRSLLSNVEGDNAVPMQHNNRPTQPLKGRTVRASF

In the case of `CN(C)CCCC1(c2ccc(F)cc2)OCc2cc(C#N)ccc21` (stereo not given), the Activity in experiment [1] stood at 148%; in experiment [2], 134%.

Regarding `N[C@@H](Cc1ccccc1)C(=O)O`, the Activity in experiment [3] was 210%; in experiment [1], 160%.

Take `NCCc1c[nH]cn1`: the Activity in experiment [4] was 185%; in experiment [2], 165%.

`CN[C@H]1CC[C@@H](c2ccc(Cl)c(Cl)c2)c2ccccc21`: the Activity stood at 165% in experiment [1] and 145% in experiment [2].

As for `CNCCC(Oc1ccc(C(F)(F)F)cc1)c1ccccc1` (stereo not given), the Activity in experiment [4] amounted to 210%; in experiment [2] it was 175%.
